Assay results reported in patent EP0373543A2, “Diagnostic media and assay for detecting fungicide resistance” (BASF Corporation, priority 1988, dated 1990).

Tests used:
Type in all cases: cell-based
[1] = tested on: Botrytis cinerea; assay: Spore germination on agar-dextrose medium containing vinclozolin, microscopic examination (Example 1); conditions: 18 hours room temperature
Protocol: (§1) Resistant and sensitive fungi were initially obtained from crops of cultivated fruit in the field. The percent germination reported below was calculated by microscopic evaluation. An average of four fields of view per plate was examined with each field of view having a total of about 100 to 300 spores. The total number of spores in each field of view was counted then either the number germinated or not germinated, whichever was easiest to count, was determined. These numbers were then combined appropriately and the percent germination calculated. Unless otherwise noted, resistant isolates are given a numerical designation and sensitive isolates a letter designation.
Botrytis cinerea of known sensitivity and resistance to vinclozolin were cultured on potato dextrose agar prepared according to manufacturer's directions and Preparation Example 2 for 2 weeks and induced to sporulate under long wave ultraviolet light. Spores were transferred using a sterile cotton tipped swab to a solid medium containing 20 g of agar, 20 g dextrose and the amount of vinclozolin in parts per million per liter of media shown in Table 1 below. The innoculated media was incubated at room temperature for 18 hours and microscopically examined for germination; the results of this assay are set forth below in Table 1 where "BC" means Botrytis cinerea.

[2] = tested on: Botrytis cinerea; assay: Color change diameter on bromcresol purple media containing vinclozolin (Example 2); design: key to COLOR CHANGE DIAMETER: T = only slight color change; conditions: for COLOR CHANGE DIAMETER: 20 hours
Protocol: (§2) To a stock solution of 0.4 g bromcresol purple in 260 mls of 0.01N sodium hydroxide, either 40 g of potato dextrose agar (PDA) or 40 g dextrose and 20 g agar (WA-dextrose medium) were added and the total volume brought up to 1 liter using distilled water. After autoclaving the media, a solution of vinclozolin in 5 mls of ethanol was added to afford 5 or 10 ppm concentrations and dispensed into petri plates (10 ml/plate). Sporulating cultures of Botrytis cinerea and Rhizopus nigricans (also known as Rhizopus stolonifer) were grown for two weeks on potato dextrose agar. Spores were transferred to the diagnostic media using sterile cotton tipped swabs and incubated for 20 hours at room temperature. The media was macroscopically examined and the diameter of color change detectable in the media was then measured.

[3] = tested on: Rhizopus nigricans; assay: as above; design: key to COLOR CHANGE DIAMETER: T = only slight color change; conditions: for COLOR CHANGE DIAMETER: 20 hours
Protocol: as §2

[4] = tested on: Botrytis cinerea; assay: Color change diameter on bromothymol blue diagnostic media at pH 7.5-8.5 (Example 3); design: key: T = only slight color change
Protocol: (§3) Diagnostic media was prepared substantially as described above in Preparation Example 1 except that bromothymol blue rather than bromcresol purple and only 4 g of dextrose was used per liter and the pH adjusted to 7.5, 8.0 and 8.5. These media were then inoculated with spores of either Botrytis cinerea or Rhizopus nigricans isolates substantially as previously described. The inoculated media was then incubated for 18 hours at room temperature and the results recorded below in Table III.

[5] = tested on: Rhizopus nigricans; assay: as above; design: key: T = only slight color change
Protocol: as §3

[6] = tested on: Botrytis cinerea; assay: Microscopic spore germination on the Example 3 plates; conditions: microscopically examined
Protocol: as §1, §3
Strong color reactions were only observed from the resistant Botrytis cinerea isolates. Only slight reactions, at most, occurred from the Rhizopus nigricans inoculations. Example 4

[7] = tested on: Botrytis cinerea; assay: Color change diameter on bromcresol purple media containing vinclozolin (Example 2); conditions: resistant isolates of Botrytis cinerea only; water dextrose media; after 4 days

Structure (SMILES): C=CC1(C)OC(=O)N(c2cc(Cl)cc(Cl)c2)C1=O (stereo not shown) [vinclozolin]
- Percent Germination ([1]; isolate BC-1 resistant, vinclozolin 2.5 ppm): 100%
- Percent Germination ([1]; isolate BC-1 resistant, vinclozolin 5.0 ppm): 100%
- Percent Germination ([1]; isolate BC-1 resistant, vinclozolin 10.0 ppm): 100%
- Percent Germination ([1]; isolate BC-2 res., vinclozolin 2.5 ppm): 100%
- Percent Germination ([1]; isolate BC-2 res., vinclozolin 5.0 ppm): 100%
- Percent Germination ([1]; isolate BC-2 res., vinclozolin 10.0 ppm): 100%
- Percent Germination ([1]; isolate BC-3 res., vinclozolin 2.5 ppm): 100%
- Percent Germination ([1]; isolate BC-3 res., vinclozolin 5.0 ppm): 90%
- Percent Germination ([1]; isolate BC-3 res., vinclozolin 10.0 ppm): 80%
- Percent Germination ([1]; isolate BC-4 res., vinclozolin 2.5 ppm): 100%
- Percent Germination ([1]; isolate BC-4 res., vinclozolin 5.0 ppm): 100%
- Percent Germination ([1]; isolate BC-4 res., vinclozolin 10.0 ppm): 100%
- Percent Germination ([1]; isolate BC-5 res., vinclozolin 2.5 ppm): 100%
- Percent Germination ([1]; isolate BC-5 res., vinclozolin 5.0 ppm): 100%
- Percent Germination ([1]; isolate BC-5 res., vinclozolin 10.0 ppm): 90%
- Percent Germination ([1]; isolate BC-6 res., vinclozolin 2.5 ppm): 100%
- Percent Germination ([1]; isolate BC-6 res., vinclozolin 5.0 ppm): 100%
- Percent Germination ([1]; isolate BC-6 res., vinclozolin 10.0 ppm): 100%
- Percent Germination ([1]; isolate BC-A sensitive, vinclozolin 2.5 ppm): 0%
- Percent Germination ([1]; isolate BC-A sensitive, vinclozolin 5.0 ppm): 0%
- Percent Germination ([1]; isolate BC-A sensitive, vinclozolin 10.0 ppm): 0%
- Percent Germination ([1]; isolate BC-B sens., vinclozolin 2.5 ppm): 0%
- Percent Germination ([1]; isolate BC-B sens., vinclozolin 5.0 ppm): 0%
- Percent Germination ([1]; isolate BC-B sens., vinclozolin 10.0 ppm): 0%
- Percent Germination ([1]; isolate BC-C sens., vinclozolin 2.5 ppm): 0%
- Percent Germination ([1]; isolate BC-C sens., vinclozolin 5.0 ppm): 0%
- Percent Germination ([1]; isolate BC-C sens., vinclozolin 10.0 ppm): 0%
- Percent Germination ([1]; isolate BC-D sens., vinclozolin 2.5 ppm): 0%
- Percent Germination ([1]; isolate BC-D sens., vinclozolin 5.0 ppm): 0%
- Percent Germination ([1]; isolate BC-D sens., vinclozolin 10.0 ppm): 0%
- COLOR CHANGE DIAMETER ([2]; isolate BC-1 res., PDA media, vinclozolin 5.0ppm): 5 mm
- COLOR CHANGE DIAMETER ([2]; isolate BC-1 res., PDA media, vinclozolin 10.0ppm): 0 mm
- COLOR CHANGE DIAMETER ([2]; isolate BC-1 res., WA-dextrose media, vinclozolin 5.0ppm): T^a
- COLOR CHANGE DIAMETER ([2]; isolate BC-1 res., WA-dextrose media, vinclozolin 10.0ppm): 5 mm
- COLOR CHANGE DIAMETER ([2]; isolate BC-2 res., PDA media, vinclozolin 5.0ppm): 10 mm
- COLOR CHANGE DIAMETER ([2]; isolate BC-2 res., PDA media, vinclozolin 10.0ppm): 0 mm
- COLOR CHANGE DIAMETER ([2]; isolate BC-2 res., WA-dextrose media, vinclozolin 5.0ppm): 10 mm
- COLOR CHANGE DIAMETER ([2]; isolate BC-2 res., WA-dextrose media, vinclozolin 10.0ppm): 5 mm
- COLOR CHANGE DIAMETER ([2]; isolate BC-3 resistant, PDA media, vinclozolin 5.0ppm): 10 mm
- COLOR CHANGE DIAMETER ([2]; isolate BC-3 resistant, PDA media, vinclozolin 10.0ppm): 0 mm
- COLOR CHANGE DIAMETER ([2]; isolate BC-3 resistant, WA-dextrose media, vinclozolin 5.0ppm): 10 mm
- COLOR CHANGE DIAMETER ([2]; isolate BC-3 resistant, WA-dextrose media, vinclozolin 10.0ppm): 10 mm
- COLOR CHANGE DIAMETER ([2]; isolate BC-A sensitive, PDA media, vinclozolin 5.0ppm): 0 mm
- COLOR CHANGE DIAMETER ([2]; isolate BC-A sensitive, PDA media, vinclozolin 10.0ppm): 0 mm
- COLOR CHANGE DIAMETER ([2]; isolate BC-A sensitive, WA-dextrose media, vinclozolin 5.0ppm): 0 mm
- COLOR CHANGE DIAMETER ([2]; isolate BC-A sensitive, WA-dextrose media, vinclozolin 10.0ppm): 0 mm
- COLOR CHANGE DIAMETER ([2]; isolate BC-B sens., PDA media, vinclozolin 5.0ppm): 0 mm
- COLOR CHANGE DIAMETER ([2]; isolate BC-B sens., PDA media, vinclozolin 10.0ppm): 0 mm
- COLOR CHANGE DIAMETER ([2]; isolate BC-B sens., WA-dextrose media, vinclozolin 5.0ppm): 0 mm
- COLOR CHANGE DIAMETER ([2]; isolate BC-B sens., WA-dextrose media, vinclozolin 10.0ppm): 0 mm
- COLOR CHANGE DIAMETER ([2]; isolate BC-D sens., PDA media, vinclozolin 5.0ppm): 0 mm
- COLOR CHANGE DIAMETER ([2]; isolate BC-D sens., PDA media, vinclozolin 10.0ppm): 0 mm
- COLOR CHANGE DIAMETER ([2]; isolate BC-D sens., WA-dextrose media, vinclozolin 5.0ppm): 0 mm
- COLOR CHANGE DIAMETER ([2]; isolate BC-D sens., WA-dextrose media, vinclozolin 10.0ppm): 0 mm
- color change ([2]; resistant isolates, PDA media containing 10 ppm of vinclozolin, after 4 days): no measurable color change
- color reaction ([3]; Rhizopus nigricans isolates, PDA media containing 5 ppm of vinclozolin, after 4 days): allowed 1 of the Rhizopus nigricans contaminated isolates to react
- COLOR CHANGE DIAMETER ([3]; isolate RP-1, PDA media, vinclozolin 5.0ppm): T
- COLOR CHANGE DIAMETER ([3]; isolate RP-1, PDA media, vinclozolin 10.0ppm): 0 mm
- COLOR CHANGE DIAMETER ([3]; isolate RP-1, WA-dextrose media, vinclozolin 5.0ppm): 0 mm
- COLOR CHANGE DIAMETER ([3]; isolate RP-1, WA-dextrose media, vinclozolin 10.0ppm): 0 mm
- COLOR CHANGE DIAMETER ([3]; isolate RP-2, PDA media, vinclozolin 5.0ppm): T
- COLOR CHANGE DIAMETER ([3]; isolate RP-2, PDA media, vinclozolin 10.0ppm): 0 mm
- COLOR CHANGE DIAMETER ([3]; isolate RP-2, WA-dextrose media, vinclozolin 5.0ppm): 0 mm
- COLOR CHANGE DIAMETER ([3]; isolate RP-2, WA-dextrose media, vinclozolin 10.0ppm): 0 mm
- DIAMETER OF COLOR CHANGE ([4]; isolate BC B sens., pH 7.5, 18 hours): 0 mm
- DIAMETER OF COLOR CHANGE ([4]; isolate BC B sens., pH 8.0, 18 hours): 0 mm
- DIAMETER OF COLOR CHANGE ([4]; isolate BC B sens., pH 8.5, 18 hours): 0 mm
- DIAMETER OF COLOR CHANGE ([4]; isolate BC-1 res., pH 7.5, 18 hours): 12 mm
- DIAMETER OF COLOR CHANGE ([4]; isolate BC-1 res., pH 8.0, 18 hours): 6 mm
- DIAMETER OF COLOR CHANGE ([4]; isolate BC-1 res., pH 8.5, 18 hours): 0 mm
- DIAMETER OF COLOR CHANGE ([4]; isolate BC-2 res., pH 7.5, 18 hours): 12 mm
- DIAMETER OF COLOR CHANGE ([4]; isolate BC-2 res., pH 8.0, 18 hours): 6 mm
- DIAMETER OF COLOR CHANGE ([4]; isolate BC-2 res., pH 8.5, 18 hours): T
- DIAMETER OF COLOR CHANGE ([4]; isolate BC-3 res., pH 7.5, 18 hours): 18 mm
- DIAMETER OF COLOR CHANGE ([4]; isolate BC-3 res., pH 8.0, 18 hours): 12 mm
- DIAMETER OF COLOR CHANGE ([4]; isolate BC-3 res., pH 8.5, 18 hours): 12 mm
- DIAMETER OF COLOR CHANGE ([4]; isolate BC-4 res., pH 7.5, 18 hours): 12 mm
- DIAMETER OF COLOR CHANGE ([4]; isolate BC-4 res., pH 8.0, 18 hours): 12 mm
- DIAMETER OF COLOR CHANGE ([4]; isolate BC-4 res., pH 8.5, 18 hours): 12 mm
- DIAMETER OF COLOR CHANGE ([4]; isolate BC-5 res., pH 7.5, 18 hours): 6 mm
- DIAMETER OF COLOR CHANGE ([4]; isolate BC-5 res., pH 8.0, 18 hours): 3 mm
- DIAMETER OF COLOR CHANGE ([4]; isolate BC-5 res., pH 8.5, 18 hours): 6 mm
- DIAMETER OF COLOR CHANGE ([4]; isolate BC-6 resistant, pH 7.5, 18 hours): 6 mm
- DIAMETER OF COLOR CHANGE ([4]; isolate BC-6 resistant, pH 8.0, 18 hours): 3 mm
- DIAMETER OF COLOR CHANGE ([4]; isolate BC-6 resistant, pH 8.5, 18 hours): 6 mm
- DIAMETER OF COLOR CHANGE ([4]; isolate BC-A sensitive, pH 7.5, 18 hours): 0 mm
- DIAMETER OF COLOR CHANGE ([4]; isolate BC-A sensitive, pH 8.0, 18 hours): 0 mm
- DIAMETER OF COLOR CHANGE ([4]; isolate BC-A sensitive, pH 8.5, 18 hours): 0 mm
- DIAMETER OF COLOR CHANGE ([4]; isolate BC-C sens., pH 7.5, 18 hours): T
- DIAMETER OF COLOR CHANGE ([4]; isolate BC-C sens., pH 8.0, 18 hours): 0 mm
- DIAMETER OF COLOR CHANGE ([4]; isolate BC-C sens., pH 8.5, 18 hours): 0 mm
- DIAMETER OF COLOR CHANGE ([4]; isolate BC-D sens., pH 7.5, 18 hours): T
- DIAMETER OF COLOR CHANGE ([4]; isolate BC-D sens., pH 8.0, 18 hours): 0 mm
- DIAMETER OF COLOR CHANGE ([4]; isolate BC-D sens., pH 8.5, 18 hours): 0 mm
- DIAMETER OF COLOR CHANGE ([5]; isolate RP-3, pH 7.5, 18 hours): T
- DIAMETER OF COLOR CHANGE ([5]; isolate RP-3, pH 8.0, 18 hours): T
- DIAMETER OF COLOR CHANGE ([5]; isolate RP-3, pH 8.5, 18 hours): T
- DIAMETER OF COLOR CHANGE ([5]; isolate RP-4, pH 7.5, 18 hours): T
- DIAMETER OF COLOR CHANGE ([5]; isolate RP-4, pH 8.0, 18 hours): T
- DIAMETER OF COLOR CHANGE ([5]; isolate RP-4, pH 8.5, 18 hours): T
- spore germination ([6]; all of the resistant isolates): greater than 90%
- spore germination ([6]; sensitive isolate spores): no germination
- diameter color reaction [7]: 25 mm
